Test results published in ChEMBL document CHEMBL3797108, “Design, synthesis and in vitro biological evaluation of a small cyclic peptide as inhibitor of vascular endothelial growth factor binding to neuropilin-1” (Bioorg Med Chem Lett, 2016).
Active and inactive are the calls of the source. The calls are words filed in the database; no cut-off is given here. Positions of bridges follow the written chain, without caps; N, C: chain ends. Residues, ends and D or L forms follow the SMILES beside them.

What was measured:
MDA-MB-231 [1] = assay: Toxicity against human MDA-MB-231 assessed as reduction in cell viability at 200 to 1000 uM incubated for 24 hrs by MTS assay; format: cell-based; conditions: mda-mb-231, 24 h
[2] = target: Neuropilin-1 (Rattus norvegicus) (UniProt Q9QWJ9); assay: Inhibition of (bt)-VEGF165 binding to purified recombinant rat NRP1/Fc chimera measured after overnight incubation by ELISA method relative to A7R
HUVEC [3] = assay: Toxicity against HUVEC assessed as reduction in cell viability at 200 to 1000 uM incubated for 24 hrs by MTS assay; format: cell-based; conditions: human
HUVEC [4] = assay: Toxicity against HUVEC assessed as reduction in cell viability at 200 to 1000 uM incubated for 96 hrs by MTS assay; format: cell-based; conditions: human
[5] = target: Neuropilin-1 (Rattus norvegicus) (UniProt Q9QWJ9); assay: Inhibition of (bt)-VEGF165 binding to purified recombinant rat NRP1/Fc chimera at 0.01 uM measured after overnight incubation by ELISA method
[6] = target: Neuropilin-1 (Rattus norvegicus) (UniProt Q9QWJ9); assay: Inhibition of (bt)-VEGF165 binding to purified recombinant rat NRP1/Fc chimera at 3 uM measured after overnight incubation by ELISA method
[7] = target: Neuropilin-1 (Rattus norvegicus) (UniProt Q9QWJ9); assay: Inhibition of (bt)-VEGF165 binding to purified recombinant rat NRP1/Fc chimera at 100 uM measured after overnight incubation by ELISA method
[8] = target: Neuropilin-1 (Rattus norvegicus) (UniProt Q9QWJ9); assay: Inhibition of (bt)-VEGF165 binding to purified recombinant rat NRP1/Fc chimera at 1 uM measured after overnight incubation by ELISA method
[9] = target: Neuropilin-1 (Rattus norvegicus) (UniProt Q9QWJ9); assay: Inhibition of (bt)-VEGF165 binding to purified recombinant rat NRP1/Fc chimera at 10 uM measured after overnight incubation by ELISA method
[10] = target: Neuropilin-1 (Rattus norvegicus) (UniProt Q9QWJ9); assay: Inhibition of (bt)-VEGF165 binding to purified recombinant rat NRP1/Fc chimera at 0.3 uM measured after overnight incubation by ELISA method
MDA-MB-231 [11] = assay: Toxicity against human MDA-MB-231 assessed as reduction in cell viability at 200 to 1000 uM incubated for 96 hrs by MTS assay; format: cell-based; conditions: mda-mb-231, 96 h
Neuropilin-1 = Neuropilin-1 (Rattus norvegicus, UniProt Q9QWJ9); assay: (§1) Inhibition of (bt)-VEGF165 binding to purified recombinant rat NRP1/Fc chimera measured after overnight incubation by ELISA method
[12] = target: Neuropilin-1 (Rattus norvegicus) (UniProt Q9QWJ9); assay: as §1
[13] = target: Neuropilin-1 (Rattus norvegicus) (UniProt Q9QWJ9); assay: Inhibition of (bt)-VEGF165 binding to purified recombinant rat NRP1/Fc chimera at 0.1 uM measured after overnight incubation by ELISA method

Compound	Activity (MDA-MB-231 [1])	Ratio IC50 [2]	Activity (HUVEC [3])	Activity (HUVEC [4])	inhibition [5]	inhibition [6] [%]	inhibition [7] [%]	inhibition [8] [%]	inhibition [9] [%]	inhibition [10] [%]	Activity (MDA-MB-231 [11])	IC50 (Neuropilin-1) [µM]	inhibition [12]	inhibition [13] [%]
N=C(N)NCCC[C@H](NC(=O)[C@@H]1CCC(=O)NCCCC[C@H](N)C(=O)N2CCC[C@H]2C(=O)N1)C(=O)O (H-KPER-OH; lactam 1-3)	Non-toxic	< 30	Non-toxic	Non-toxic	3.1%	86.7	100	76.5	94.7	61.7	Non-toxic	0.18	Dose-dependent effect	35.5
H-ATWLPPR-OH	–	–	–	–	inactive	38.1	–	24.4	61	14.6	–	5.86	–	2.9
